US12290588B2, “Peptide having activity of improving skin condition and use thereof” (CAREGEN CO., LTD., priority 2019, dated 2025)

Tests used:
[1] = test system: procollagen 1α; experiment: Procollagen 1α ELISA in fibroblast medium; assay type: cell-based; conditions: NIH3T3 mouse fibroblasts, peptide 10, 50 or 100 μM, 24 hours, ELISA of medium (FIG. 1)
Description: NIH3T3 mouse fibroblasts were seeded in a 6-well plate at a density of 5×10^3 cells/well, and cultured for 16 hours. Afterwards, the culture medium was replaced with a serum-free medium, the peptide consisting of the amino acid sequence of SEQ ID NO: 1 was added thereto at a concentration of 10 μM, 50 μM, or 100 μM, and the cells were cultured for 24 hours. Then, the amount of procollagen 1α in the medium was measured by using a Procollagen 1α ELISA kit (Us biological lifescience, USA). Meanwhile, a non-treated group (Con) was used as a control group, and a group to which 100 nM of bFGF was added and a group to which 5 ng/ml of TGF-β1 was added were used as positive control groups.

[2] = test system: PPAR-γ; experiment: RT-PCR of PPAR-γ expression in fibroblasts; assay type: cell-based; conditions: NIH3T3 mouse fibroblasts, peptide 10, 50 or 100 μM, 24 hours, PCR (FIG. 2)
Description: (§1) In this example, an effect the peptide according to an embodiment on the cellular activity of fibroblasts was to be confirmed by measuring the expression levels of PPAR-γ, PPAR-δ, and PGC-1α, which are mitochondrial biogenesis-related genes. In detail, NIH3T3 mouse fibroblasts were seeded in a 6-well plate at a density of 3×10^5 cells/well, and cultured for 16 hours. Afterwards, the culture medium was replaced with a serum-free medium, the peptide consisting of the amino acid sequence of SEQ ID NO: 1 was added thereto at a concentration of 10 μM, 50 μM, or 100 μM, and the cells were cultured for 24 hours. Then, mRNA was extracted from the cultured cells, and reverse-transcribed into cDNA by using a cDNA synthesis kit and PCR pre-mix (Intron, Korea). Afterwards, a polymerase chain reaction (PCR) was performed by using the cDNA and primers of PPAR-γ, PPAR-δ, and PGC-1α. Meanwhile, a control group and positive groups were used in the same manner as in Example 2, and the nucleotide sequences of the primers used herein are shown in Table 2.

[3] = test system: PPAR-δ; experiment: RT-PCR of PPAR-δ expression in fibroblasts; assay type: cell-based; conditions: NIH3T3 mouse fibroblasts, peptide 10, 50 or 100 μM, 24 hours, PCR (FIG. 2)
Description: as §1

[4] = test system: PGC-1α; experiment: RT-PCR of PGC-1α expression in fibroblasts; assay type: cell-based; conditions: NIH3T3 mouse fibroblasts, peptide 10, 50 or 100 μM, 24 hours, PCR (FIG. 2)
Description: as §1

[5] = test system: cleaved caspase-3; experiment: Western blotting of cleaved caspase-3 in UV-irradiated fibroblasts; assay type: cell-based, mouse; conditions: NIH3T3 fibroblasts, UV 6 J/cm^2, peptide 10, 50 or 100 μM before and 24 hours after irradiation, western blotting (FIG. 3)
Description: (§2) NIH3T3 mouse fibroblasts or HaCaT human keratinocytes were respectively seeded in a 6-sell plate at a density of 3×10^5 cells/well, and cultured for 16 hours. Afterwards, the culture medium was replaced with a serum-free medium, the peptide consisting of the amino acid sequence of SEQ ID NO: 1 was added thereto at a concentration of 10 μM, 50 μM, or 100 μM, and the cells were cultured for 1 hour. Each well containing the cultured cells was washed with phosphate buffered saline (PBS), and the NIH3T3 cells or HaCaT cells were respectively irradiated with ultraviolet light of 6 J/cm^2 or 15 J/cm^2, so as to induce an increase in the expression of apoptosis proteins. Afterwards, the culture medium was replaced with a serum-free medium, the peptide consisting of the amino acid sequence of SEQ ID NO: 1 was added thereto at a concentration of 10 μM, 50 μM, or 100 μM, and the cells were cultured for 24 hours. Cell lysates were obtained by adding a lysis buffer to the cultured cells, and then, western blotting was performed thereon by using cleaved PARP-1 and cleaved caspase-3 antibodies (Santacruz biotechnology, USA). Meanwhile, a non-treated group (Con) was used as a control group. […]

[6] = test system: cleaved PARP-1; experiment: Western blotting of cleaved PARP-1 in UV-irradiated keratinocytes; assay type: cell-based, human; conditions: HaCaT keratinocytes, UV 15 J/cm^2, peptide 10, 50 or 100 μM before and 24 hours after irradiation, western blotting (FIG. 4)
Description: as §2

[7] = test system: cleaved caspase-3; experiment: Western blotting of cleaved caspase-3 in UV-irradiated keratinocytes; assay type: cell-based, human; conditions: HaCaT keratinocytes, UV 15 J/cm^2, peptide 10, 50 or 100 μM before and 24 hours after irradiation, western blotting (FIG. 4)
Description: as §2

[8] = test system: MMP-1; experiment: Western blotting of MMP-1 in UV-irradiated fibroblasts; assay type: cell-based, mouse; conditions: NIH3T3 fibroblasts, UV 6 J/cm^2, peptide 10, 50 or 100 μM before and 24 hours after irradiation, western blotting (FIG. 5)
Description: (§3) NIH3T3 mouse fibroblasts were seeded in a 6-well plate at a density of 3×10^5 cells/well, and cultured for 16 hours. Afterwards, the culture medium was replaced with a serum-free medium, the peptide consisting of the amino acid sequence of SEQ ID NO: 1 was added thereto at a concentration of 10 μM, 50 μM, or 100 μM, and the cells were cultured for 1 hour. Each well containing the cultured cells was washed with PBS, and the NIH3T3 cells were irradiated with ultraviolet light of 6 J/cm^2, so as to induce an increase in the expression of MMP-1 and MMP-2. Afterwards, the culture medium was replaced with a serum-free medium, the peptide consisting of the amino acid sequence of SEQ ID NO: 1 was added thereto at a concentration of 10 μM, 50 μM, or 100 μM, and the cells were cultured for 24 hours. Afterwards, cell lysates were obtained by adding a lysis buffer to the cultured cells, and then, western blotting was performed thereon by using MMP-1 antibodies (cell signaling, USA) to measure the expression of MMP-1.

[9] = test system: MMP-2; experiment: Gelatin zymography of MMP-2 activity in UV-irradiated fibroblasts; assay type: cell-based, mouse; conditions: NIH3T3 fibroblasts, UV 6 J/cm^2, peptide 10, 50 or 100 μM before and 24 hours after irradiation, gelatin zymography (FIG. 5)
Description: as §3
Meanwhile, the cell lysates were subjected to gelatin zymography to measure the activity of MMP-2. In detail, after protein electrophoresis (SDS-PAGE) was performed by using 2 mg/ml of gelatin as a substrate. […]

[10] = test system: Col1a1; experiment: RT-PCR of Col1a1 expression in UV-irradiated fibroblasts; assay type: cell-based, mouse; conditions: NIH3T3 fibroblasts, UV 6 J/cm^2, peptide 10, 50 or 100 μM before and 6 hours after irradiation, PCR (FIG. 6)
Description: (§4) In this example, changes in the cellular activity of fibroblasts were evaluated through the expression of Col1a1, Fibronectin, and Elastin, which are known as components of the dermis. Also, changes in the cellular activity of keratinocytes were evaluated through the expression of SIRT1, which is an anti-aging gene, and AQP3, which is a component of the skin barrier. Based on the evaluation results, the effect of the peptide according to an embodiment on the restoration of the cellular activity of the fibroblasts and keratinocytes was confirmed. In detail, NIH3T3 mouse fibroblasts or HaCaT human keratinocytes were respectively seeded in a 6-sell plate at a density of 3×10^5 cells/well, and cultured for 16 hours. Afterwards, the culture medium was replaced with a serum-free medium, the peptide consisting of the amino acid sequence of SEQ ID NO: 1 was added thereto at a concentration of 10 μM, 50 μM, or 100 μM, and the cells were cultured for 1 hour. Each well containing the cultured cells was washed with PBS, and the NIH3T3 cells or the HaCaT cells were respectively irradiated with ultraviolet light of 6 J/cm^2 or 20 J/cm^2, so as to induce inhibition of the cellular activity. […]

[11] = test system: Fibronectin; experiment: RT-PCR of Fibronectin expression in UV-irradiated fibroblasts; assay type: cell-based, mouse; conditions: NIH3T3 fibroblasts, UV 6 J/cm^2, peptide 10, 50 or 100 μM before and 6 hours after irradiation, PCR (FIG. 6)
Description: as §4

[12] = test system: Elastin; experiment: RT-PCR of Elastin expression in UV-irradiated fibroblasts; assay type: cell-based, mouse; conditions: NIH3T3 fibroblasts, UV 6 J/cm^2, peptide 10, 50 or 100 μM before and 6 hours after irradiation, PCR (FIG. 6)
Description: as §4

[13] = test system: SIRT1; experiment: RT-PCR of SIRT1 expression in UV-irradiated keratinocytes; assay type: cell-based, human; conditions: HaCaT keratinocytes, UV 20 J/cm^2, peptide 10, 50 or 100 μM before and 6 hours after irradiation, PCR (FIG. 7)
Description: as §4

[14] = test system: AQP3; experiment: RT-PCR of AQP3 expression in UV-irradiated keratinocytes; assay type: cell-based, human; conditions: HaCaT keratinocytes, UV 20 J/cm^2, peptide 10, 50 or 100 μM before and 6 hours after irradiation, PCR (FIG. 7)
Description: as §4

[15] = test system: TNF-α; experiment: RT-PCR of TNF-α expression in UV-irradiated keratinocytes; assay type: cell-based, human; conditions: HaCaT keratinocytes, peptide 10, 50 or 100 μM for 1 hour, UV 15 J/cm^2, PCR (FIG. 8)
Description: (§5) HaCaT human keratinocytes were seeded in a 6-well plate at a density of 3×10^5 cells/well, and cultured for 16 hours. Afterwards, the culture medium was replaced with a serum-free medium, the peptide consisting of the amino acid sequence of SEQ ID NO: 1 was added thereto at a concentration of 10 μM, 50 μM, or 100 μM, and the cells were cultured for 1 hour. Each well containing the cultured cells was washed with PBS, and the HaCaT cells were irradiated with ultraviolet light of 15 J/cm^2, so as to induce an increase in the expression of inflammatory cytokine which is an inflammatory factor. Then, mRNA was extracted from the cultured cells, and reverse-transcribed into cDNA by using a cDNA synthesis kit and PCR pre-mix (Intron, Korea). Afterwards, PCR was performed by using the cDNA and primers of TNF-α, COX-2, IL-1β, and IL-6. Meanwhile, a control group and a positive group were used in the same manner as in Example 4, and the nucleotide sequences of the primers used herein are shown in Table 5.

[16] = test system: COX-2; experiment: RT-PCR of COX-2 expression in UV-irradiated keratinocytes; assay type: cell-based, human; conditions: HaCaT keratinocytes, peptide 10, 50 or 100 μM for 1 hour, UV 15 J/cm^2, PCR (FIG. 8)
Description: as §5

[17] = test system: IL-1β; experiment: RT-PCR of IL-1β expression in UV-irradiated keratinocytes; assay type: cell-based, human; conditions: HaCaT keratinocytes, peptide 10, 50 or 100 μM for 1 hour, UV 15 J/cm^2, PCR (FIG. 8)
Description: as §5

[18] = test system: IL-6; experiment: RT-PCR of IL-6 expression in UV-irradiated keratinocytes; assay type: cell-based, human; conditions: HaCaT keratinocytes, peptide 10, 50 or 100 μM for 1 hour, UV 15 J/cm^2, PCR (FIG. 8)
Description: as §5

ECEELEEK (Peptide 1) [SEQ ID NO: 1]
expression of procollagen 1α [1]: increased | expression of PPAR-γ [2]: increased | expression of PPAR-δ [3]: increased | expression of PGC-1α [4]: increased | expression of cleaved caspase-3 increased by ultraviolet irradiation [5]: reduced | expression of cleaved PARP-1 increased by ultraviolet irradiation [6]: significantly reduced | expression of cleaved caspase-3 increased by ultraviolet irradiation [7]: significantly reduced | expression of MMP-1 increased by ultraviolet irradiation [8]: reduced | activity of MMP-2 increased by ultraviolet irradiation [9]: reduced | expression of Col1 a1 inhibited by ultraviolet irradiation [10]: restored back to normal levels | expression of Fibronectin inhibited by ultraviolet irradiation [11]: restored back to normal levels | expression of Elastin inhibited by ultraviolet irradiation [12]: restored back to normal levels | expression of SIRT1 reduced by ultraviolet irradiation [13]: restored | expression of AQP3 reduced by ultraviolet irradiation [14]: restored | expression of TNF-α increased by ultraviolet irradiation [15]: reduced | expression of COX-2 increased by ultraviolet irradiation [16]: reduced | expression of IL-1β increased by ultraviolet irradiation [17]: reduced | expression of IL-6 increased by ultraviolet irradiation [18]: reduced
